Measured values published in the NIST ThermoML archive (doi:10.1016/j.fluid.2004.11.021).

Assay: xn = mol fraction of the nth substance listed
Details: Fluid (supercritical or subcritical phases), Other PVT measurement

[N-]=[N+]=O [nitrous oxide] + FCF
Details	molar volume [m3/mol]
283.32 K, 2978.6 kPa, x1 = 0.8042	0.000562
288.38 K, 3087.3 kPa, x1 = 0.8042	0.000562
293.46 K, 3188.3 kPa, x1 = 0.8042	0.000563
298.54 K, 2796 kPa, x1 = 0.5068	0.000644
298.6 K, 3286 kPa, x1 = 0.8042	0.000563
303.68 K, 2903.7 kPa, x1 = 0.5068	0.000644
303.68 K, 2988.3 kPa, x1 = 0.4207	0.000594
303.68 K, 3381.2 kPa, x1 = 0.8042	0.000563
308.76 K, 3475.8 kPa, x1 = 0.8042	0.000563
308.77 K, 2774.4 kPa, x1 = 0.2255	0.000631
308.77 K, 2991.7 kPa, x1 = 0.5068	0.000645
308.77 K, 3091.8 kPa, x1 = 0.4207	0.000594
313.85 K, 3190.6 kPa, x1 = 0.4207	0.000595
313.85 K, 3569.2 kPa, x1 = 0.8042	0.000563
313.86 K, 2875.7 kPa, x1 = 0.2255	0.000631
313.87 K, 3078.9 kPa, x1 = 0.5068	0.000645
318.94 K, 3288.2 kPa, x1 = 0.4207	0.000595
318.94 K, 3661.8 kPa, x1 = 0.8042	0.000563
318.95 K, 2971.2 kPa, x1 = 0.2255	0.000631
318.95 K, 3164.6 kPa, x1 = 0.5068	0.000645
324.03 K, 3384.5 kPa, x1 = 0.4207	0.000595
324.03 K, 3753.8 kPa, x1 = 0.8042	0.000563
324.04 K, 3064.8 kPa, x1 = 0.2255	0.000631
324.04 K, 3249.6 kPa, x1 = 0.5068	0.000645
329.13 K, 3157.2 kPa, x1 = 0.2255	0.000632
329.13 K, 3845.1 kPa, x1 = 0.8042	0.000563
329.14 K, 3334.1 kPa, x1 = 0.5068	0.000645
329.14 K, 3479.7 kPa, x1 = 0.4207	0.000595
334.22 K, 3248.1 kPa, x1 = 0.2255	0.000632
334.22 K, 3573.4 kPa, x1 = 0.4207	0.000595
334.23 K, 3417.4 kPa, x1 = 0.5068	0.000645
334.23 K, 3935.9 kPa, x1 = 0.8042	0.000564
339.33 K, 3338.3 kPa, x1 = 0.2255	0.000632
339.33 K, 3500 kPa, x1 = 0.5068	0.000645
339.34 K, 3666.5 kPa, x1 = 0.4207	0.000595
339.35 K, 4026.2 kPa, x1 = 0.8042	0.000564
344.43 K, 3581.9 kPa, x1 = 0.5068	0.000646
344.43 K, 3758.3 kPa, x1 = 0.4207	0.000595
344.43 K, 4115.4 kPa, x1 = 0.8042	0.000564
344.44 K, 3427.2 kPa, x1 = 0.2255	0.000632
353.6 K, 3922.3 kPa, x1 = 0.4207	0.000596
354.61 K, 3602.1 kPa, x1 = 0.2255	0.000632
354.62 K, 4293 kPa, x1 = 0.8042	0.000564

CF [fluoromethane] + [N-]=[N+]=O
Details	molar volume [m3/mol]
263.02 K, 2088.5 kPa, x2 = 0.6161	0.000766
263.03 K, 1936.1 kPa, x2 = 0.508	0.000863
267.98 K, 1999.2 kPa, x2 = 0.508	0.000863
268 K, 2048.2 kPa, x2 = 0.3047	0.00074
268 K, 2223.9 kPa, x2 = 0.6161	0.000766
272.89 K, 2060.3 kPa, x2 = 0.508	0.000863
272.98 K, 2295.8 kPa, x2 = 0.6161	0.000766
273.01 K, 2223.5 kPa, x2 = 0.3047	0.000741
273.05 K, 1878.4 kPa, x2 = 0.1467	0.000909
277.86 K, 2121 kPa, x2 = 0.508	0.000863
282.81 K, 2371.8 kPa, x2 = 0.3047	0.000741
282.83 K, 1994.7 kPa, x2 = 0.1467	0.000909
283.04 K, 2438 kPa, x2 = 0.6161	0.000767
287.8 K, 4359.8 kPa, x2 = 0.8263	0.000305
288.08 K, 2242.8 kPa, x2 = 0.508	0.000864
292.79 K, 2109.4 kPa, x2 = 0.1467	0.00091
292.93 K, 4761.6 kPa, x2 = 0.8263	0.000305
292.96 K, 2512.2 kPa, x2 = 0.3047	0.000741
293.07 K, 2574.6 kPa, x2 = 0.6161	0.000767
298.08 K, 2168.4 kPa, x2 = 0.1467	0.00091
298.09 K, 2358.5 kPa, x2 = 0.508	0.000864
298.11 K, 2642.6 kPa, x2 = 0.6161	0.000767
298.17 K, 2591.9 kPa, x2 = 0.3047	0.000741
302.97 K, 5179 kPa, x2 = 0.8263	0.000305
307.96 K, 5380.9 kPa, x2 = 0.8263	0.000305
308.05 K, 2279.3 kPa, x2 = 0.1467	0.00091
308.06 K, 2474.5 kPa, x2 = 0.508	0.000865
308.13 K, 2731.2 kPa, x2 = 0.3047	0.000742
308.15 K, 2774.9 kPa, x2 = 0.6161	0.000768
312.91 K, 5577.9 kPa, x2 = 0.8263	0.000305
318.05 K, 2388.7 kPa, x2 = 0.1467	0.000911
318.11 K, 2867.7 kPa, x2 = 0.3047	0.000742
318.12 K, 2588.2 kPa, x2 = 0.508	0.000865
318.12 K, 2904.6 kPa, x2 = 0.6161	0.000768
328.03 K, 2496.3 kPa, x2 = 0.1467	0.000911
328.09 K, 3033 kPa, x2 = 0.6161	0.000768
328.1 K, 3002.9 kPa, x2 = 0.3047	0.000742
328.11 K, 2699.9 kPa, x2 = 0.508	0.000865
338.08 K, 2810.2 kPa, x2 = 0.508	0.000866
338.08 K, 3160 kPa, x2 = 0.6161	0.000769
338.09 K, 2603.1 kPa, x2 = 0.1467	0.000912
338.09 K, 3135.8 kPa, x2 = 0.3047	0.000743
347.94 K, 2707 kPa, x2 = 0.1467	0.000912
348.05 K, 3285.8 kPa, x2 = 0.6161	0.000769
348.06 K, 2919.8 kPa, x2 = 0.508	0.000866
348.06 K, 3267 kPa, x2 = 0.3047	0.000743
354.94 K, 2779.9 kPa, x2 = 0.1467	0.000912
358.03 K, 3396.5 kPa, x2 = 0.3047	0.000743
358.03 K, 3410.5 kPa, x2 = 0.6161	0.000769
358.05 K, 3028.8 kPa, x2 = 0.508	0.000867
